Experimental data: patent publication US20190374506A1, “COMPOSITIONS AND METHODS FOR TREATING CANCER” (BETH ISREAL DEACONESS MEDICAL CENTER, priority 2016, published 2019)

Assays:
WWP1 = WWP1 (Homo sapiens, UniProt Q9H0M0); experiment: MicroScale Thermophoresis (MST) binding analysis of I3C towards WWP1
Excerpt: FIG. 10B provides the MST analysis of I3C towards WWP1. […] When I3C was superimposed onto the covalent inhibitor and WWP1 onto NEDD4-1, a model was generated showing I3C-bound WWP1 with the binding pocket formed by residues F577, L630, Y628, C629, N650, and Y656. […] The experiments of this example next confirmed this hypothesis by MicroScale Thermophoresis (MST) binding analysis.

[1] = test system: PTEN/AKT pathway in PC3 cells (PTEN-null); experiment: Western blot analysis of PTEN/AKT pathway in PC3 cells; format: cell-based, human; conditions: different doses of I3C for 3 Days
Procedure: FIG. 11B provides an analysis of effects of I3C on PTEN/AKT pathway in DU145 or PC3 cells by western blot analysis. Cells were treated with different doses of I3C for 3 Days, and followed by western blot analysis. Whether targeting WWP1/NEDD4-1, thereby enhancing PTEN dimerization and function, could offer a unique opportunity to treat MYC-driven cancers was investigated. […] As there is no small pharmacological inhibitor currently available to suppress/inhibit WWP1 activity, Indole-3-Carbinol (I3C), a potential WWP1 inhibitor, which suppresses the WWP1 activity through binding to its HECT domain, was used. First, to assess the on-target effects of I3C towards WWP1, Wwp1^−/− MEFs were used. […] Additionally, two independent PTEN stably knocked-down cells were generated. […] Western Blotting and Immunoprecipitation. For western blotting, cells were lysed in RIPA buffer (Boston BioProducts) supplemented with protease (Roche) and phosphatase (Roche) inhibitor. Proteins were separated on NuPAGE 4-12% Bis-Tris gradient gels (Invitrogen), transferred to polyvinylidine difluoride membranes (Immobilon P, Millipore) and the blots were probed with the indicated antibodies. For immunoprecipitation, PC3, 293T and MEF cells were transfected with the indicated expression vectors by using LIPOFECTAMIN 2000 (Life Technologies). […]

Hi-Myc mouse prostates = experiment: Preclinical study of I3C in Hi-Myc mice (prostate cancer); format: in vivo
Procedure: FIGS. 12A and 12B show hematoxylin and eosin (H&E) staining of mouse prostate and gross anatomy of representative Hi-Myc urogenital tract. Quantification of percentage of normal epithelium in Hi-Myc mice treated with vehicle or I3C at 6 months as shown in (A) (right). The mice at 5 months of age were treated I.P. with I3C (20 mg/kg), three times a week for 1 month starting on day zero. (n=4 per genotype) scale bar, […].
FIG. 12C provides a Western blot analysis of dorsal lateral prostate (DLP) lysates from Hi-Myc mice as in (A).
The boxed areas are enlarged three fold to show the subcellular localization of PTEN on the right. Arrow indicates the PTEN plasma membrane localization. Bar, 50 μm.
To examine the functional relevance of the WWP1/NEDD4-1/PTEN crosstalk in vivo, preclinical studies with I3C in Hi-Myc mice were performed. The expression of Hi-Myc in mouse prostate results in complete penetrance of prostatic intraepithelial neoplasia (PIN) and progresses into invasive adenocarcinoma within 5 to 12 months of age. To this end, cohorts of Hi-Myc mice at 5 months of age were treated with either the vehicle or I3C for one month.
The Beth Israel Deaconess Medical Center IACUC Committee on Animal Research approved all animal experiments. The transgenic mice used in these studies (Hi-Myc-mice), in which the prostate specific expression of human c-Myc is driven by the rat probasin promoter with two androgen response elements, were obtained from the Mouse Repository of National Cancer Institute. 9 mice per genotype were randomly chosen and used to examine the tumour at the indicated age. Wwp1−/−mice and its paired Wwp1+/+ mice (on a C57/BL6 background) were obtained from Dr. L. Matesic (University of South Carolina, Columbia, SC, USA) (Shu et al., 2013). The pathologist determined the histological grade blindly.
The mice were treated I.P. with I3C dissolved in 5% DMSO (20 mg/kg), three times a week for […] starting on day zero. I.P. administration allows I3C to achieve maximal systemic exposure.

[2] = Hi-Myc mice, I3C 20 mg/kg I.P., western blot

Chain of WWP1 (Q9H0M0 whole entry): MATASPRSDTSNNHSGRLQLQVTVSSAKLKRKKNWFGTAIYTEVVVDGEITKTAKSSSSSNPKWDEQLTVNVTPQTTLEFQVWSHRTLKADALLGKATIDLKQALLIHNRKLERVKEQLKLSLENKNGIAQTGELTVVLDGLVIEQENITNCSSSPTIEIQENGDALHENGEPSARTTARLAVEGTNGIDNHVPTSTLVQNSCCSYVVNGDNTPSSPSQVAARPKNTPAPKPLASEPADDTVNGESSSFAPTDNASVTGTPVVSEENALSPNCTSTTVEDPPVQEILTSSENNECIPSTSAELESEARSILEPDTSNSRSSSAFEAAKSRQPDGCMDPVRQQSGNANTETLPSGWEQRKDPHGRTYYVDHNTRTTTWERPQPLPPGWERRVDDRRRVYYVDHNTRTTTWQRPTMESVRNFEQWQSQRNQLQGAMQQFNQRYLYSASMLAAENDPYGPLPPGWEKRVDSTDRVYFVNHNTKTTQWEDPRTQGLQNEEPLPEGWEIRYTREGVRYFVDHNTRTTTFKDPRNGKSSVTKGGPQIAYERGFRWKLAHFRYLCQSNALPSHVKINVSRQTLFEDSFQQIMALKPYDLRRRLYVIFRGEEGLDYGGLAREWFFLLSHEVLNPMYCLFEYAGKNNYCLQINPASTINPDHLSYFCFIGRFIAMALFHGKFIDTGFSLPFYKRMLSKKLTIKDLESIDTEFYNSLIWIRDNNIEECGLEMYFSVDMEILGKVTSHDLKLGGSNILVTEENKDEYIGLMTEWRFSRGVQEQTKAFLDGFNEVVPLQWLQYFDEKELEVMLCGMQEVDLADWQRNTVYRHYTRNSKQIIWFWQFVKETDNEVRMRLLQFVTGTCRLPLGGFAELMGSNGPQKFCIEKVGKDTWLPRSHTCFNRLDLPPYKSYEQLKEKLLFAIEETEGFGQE

OCc1c[nH]c2ccccc12 [I3C, indole-3-carbinol]
binding affinity for WWP1 compared to NEDD4-1 (WWP1; MST Kd for WWP1 versus literature Kd for NEDD4-1): significantly stronger binding affinity | Kd (WWP1; MST binding analysis, read-out: dissociation constant (Kd) of I3C binding to WWP1): ~120 nM | effects on AKT suppression and apoptosis [1]: only negligible effects | tumor size, DLP and AP (Hi-Myc mouse prostates; Hi-Myc mice 5 months of age, I3C 20 mg/kg I.P. three times a week for 1 month, dorsal lateral and anterior prostate): significantly reduced tumor size | tumor size, VP (Hi-Myc mouse prostates; Hi-Myc mice, I3C 20 mg/kg I.P. three times a week for 1 month, ventral prostate): less prominently | PTEN plasma membrane localization in prostate epithelial cells (IHC, DLP tissue) (Hi-Myc mouse prostates; Hi-Myc mice, I3C 20 mg/kg I.P., compared to vehicle): induced intense PTEN plasma membrane accumulation | histology of APs (Hi-Myc mouse prostates; Hi-Myc mice, I3C 20 mg/kg I.P., anterior prostate, H&E): completely disease-free | histology of DLPs: penetrance of invasive carcinoma (Hi-Myc mouse prostates; Hi-Myc mice, I3C 20 mg/kg I.P., dorsal lateral prostate, H&E): significantly lower penetrance | AKT activation in prostate lysates, AP and DLP (Hi-Myc mouse prostates; [2]): robustly inhibited AKT activation | PTEN protein level in prostate lysates (Hi-Myc mouse prostates; [2]): without affecting PTEN protein level
